In patent US9556132B2, “Tetrazole derivatives and their use as potassium channel modulators” (SANIONA A/S, priority 2012, dated 2017):

Target: human IK (Homo sapiens (Human), UniProt O15554)
Assay: Inhibition of IK channels expressed in HEK293 cells, thallium (I) sensitive FLIPR assay
Type: cell-based
Details: HEK293 cells over-expressing human IK; Tl+-sensitive BTC fluorescence (FLIPR); inhibition of activity induced by Ca2+-ionophore A23187
Description: Following experiment determines the ability of a test compound to inhibit the activity of IK channels heterologously expressed in human HEK293 cells, and was used as the primary screen. The ability is determined as per cent inhibition of the activity induced by addition of the Ca^2+-ionophore A23187 (considered a maximum response). The activity is determined using a standard thallium (I) sensitive assay, e.g. using a fluorometric method in a Fluorescent Image Plate Reader (FLIPR) as described below in more detail.
Full concentration/response curves are generated and IC50 values are calculated based on the degree of inhibition of the maximum response. IC50 values (Inhibitory Concentration) represent the concentration of the test substance at which 50% of the maximum channel activity is inhibited.
Human HEK293 cells over-expressing human IK are grown in culture medium (DMEM supplemented with 10% foetal bovine serum), in polystyrene culture flasks ([…]) in a humidified atmosphere of 5% CO2 in air, at 37° C. Cell confluence should be 80-90% on day of plating. Cells are rinsed with 4 mL of PBS (phosphate buffered saline) and incubated 2 min with 1 mL of Trypsin-EDTA. After addition of 25 mL of culture medium cells are re-suspended by trituration with a 25 mL pipette.
The cells are seeded at a density of ˜3×10^6 cells/mL (25 μL/well) in black-walled, clear bottom, 384-well plates pre-treated with 0.01 g/L poly-D-lysin (20 μL/well for ≧30 min). Plated cells were allowed to proliferate for 24 h before loading with dye.
BTC-AM ([…], Invitrogen) is added 25.5 μl DMSO. The BTC-AM stock solution (2 mM) is diluted to a final concentration of 2 μM in […] assay buffer (in mM: 140 Na^+-gluconate, 2.5 K^+-gluconate, 6 Ca2^+-gluconate, 1 Mg^2+ gluconate, 5 glucose, 10 HEPES, pH 7.3) containing 2 μM ouabain, 2 mM amaranth and 1 mM tartrazine.
The culture medium is aspirated from the wells, and 25 μl of the BTC-AM loading solution are added to each well. The cells are incubated at 37° C. for 60 min.
After the loading period, the Tl^+-sensitive BTC fluorescence signal is measured over time using a FLIPR.
• Temperature: Room temp. • First addition: 12 μl test or control compound after 15 sec at a rate of 30 μL/sec and starting height of 20 μL • Second addition: 12 μL stimulus buffer (Cl^− free assay buffer supplemented with 1 mM Tl2SO4, 5 μM A23187 as well as the quenchers amaranth (2 mM) and tartrazine (1 mM)) is added after an additional 3 minutes at a rate of 30 μL/sec and starting height of 30 μL • Reading intervals: First sequence—3 sec×5, 2 sec×24 and 5 sec×25 • Second sequence—1 sec×5, 2 sec×24 and 5 sec×36
Addition plates (compound plate and stimulus plate) are placed in positions 2 and 3, respectively. Cell plates are placed in position 1 and run using the “IK blocker (EtOH wash, two additions)” program. FLIPR will then take the appropriate measurements in accordance with the interval settings above. Fluorescence obtained after stimulation is corrected for the mean basal fluorescence (in Cl^− free assay buffer).
Full concentration/response curves are generated and IC50 values (“Inhibitory Concentration”, i.e. the concentration of the test substance at which 50% of the maximum channel activity is inhibited) are calculated. The responses are calculated based on peak values.

SMILES	IC50
c1ccc(-c2ccccc2-c2nnnn2-c2ccccc2)cc1 [Compound 65, 1-Phenyl-5-(2-phenylphenyl)-1H-1,2,3,4-tetrazole]	890 nM
COc1ccccc1-c1ccccc1-c1nnnn1-c1ccccc1OC [Compound 51, 1-(2-Methoxyphenyl)-5-[2-(2-methoxyphenyl)phenyl]-1H-1,2,3,4-tetrazole]	1200 nM
CSc1ccccc1-c1ccccc1-c1nnnn1-c1ccccc1F [Compound 14, 1-(2-Fluorophenyl)-5-{2-[2-(methylthio)phenyl]phenyl}-1H-1,2,3,4-tetrazole]	460 nM
Fc1ccccc1-c1ccccc1-c1nnnn1-c1ccccc1F [Compound 25, 1-(2-Fluorophenyl)-5-[2-(2-fluorophenyl)phenyl]-1H-1,2,3,4-tetrazole]	700 nM
O/N=C/c1ccccc1-c1ccccc1-c1nnnn1-c1ccccc1F [Compound 30, (E)-N-[(2-{2-[1-(2-Fluorophenyl)-1H-1,2,3,4-tetrazol-5-yl]phenyl}phenyl)methylidene]hydroxylamine]	57 nM
COCCOc1ccccc1-c1ccccc1-c1nnnn1-c1ccccc1F [Compound 4, 1-(2-Fluorophenyl)-5-{2-[2-(2-methoxyethoxyl)phenyl]phenyl}-1H-1,2,3,4-tetrazole]	30 nM
CCc1ccccc1-c1ccccc1-c1nnnn1-c1ccccc1F [Compound 20, 5-[2-(2-Ethylphenyl)phenyl]-1-(2-fluorophenyl)-1H-1,2,3,4-tetrazole]	290 nM
FCc1ccccc1-c1ccccc1-c1nnnn1-c1ccccc1F [Compound 33, 5-{2-[2-(Fluoromethyl)phenyl]phenyl}-1-(2-fluorophenyl)-1H-1,2,3,4-tetrazole]	17 nM
COc1ccccc1-c1ccccc1-c1nnnn1-c1ccccc1OC(F)F [Compound 59, 1-[2-(Difluoromethoxy)phenyl]-5-[2-(2-methoxyphenyl)phenyl]-1H-1,2,3,4-tetrazole]	69 nM
NC(=O)COc1ccccc1-c1ccccc1-c1nnnn1-c1ccccc1F [Compound 17, 2-(2-{2-[1-(2-Fluorophenyl)-1H-1,2,3,4-tetrazol-5-yl]phenyl}phenoxy)acetamide]	1000 nM
COC(=O)COc1ccccc1-c1ccccc1-c1nnnn1-c1ccccc1F [Compound 8, Methyl 2-(2-{2-[1-(2-fluorophenyl)-1H-1,2,3,4-tetrazol-5-yl]phenyl}phenoxy)acetate]	590 nM
Fc1ccccc1-n1nnnc1-c1ccccc1-c1ccccc1C(F)F [Compound 32, 5-{2-[2-(Difluoromethyl)phenyl]phenyl}-1-(2-fluorophenyl)-1H-1,2,3,4-tetrazole]	870 nM
CCOc1ccccc1-c1ccccc1-c1nnnn1-c1ccccc1F [Compound 3, 5-[2-(2-Ethoxyphenyl)phenyl]-1-(2-fluorophenyl)-1H-1,2,3,4-tetrazole]	37 nM
Fc1ccccc1-n1nnnc1-c1ccccc1-c1ccccc1C(F)(F)F [Compound 22, 1-(2-Fluorophenyl)-5-{2-[2-(trifluoromethyl)phenyl]phenyl}-1H-1,2,3,4-tetrazole]	1700 nM
O=Cc1ccccc1-c1ccccc1-c1nnnn1-c1ccccc1F [Compound 21, 2-{2-[1-(2-Fluorophenyl)-1H-1,2,3,4-tetrazol-5-yl]phenyl}benzaldehyde]	550 nM
Cc1ccccc1-c1ccccc1-c1nnnn1-c1ccccc1F [Compound 19, 1-(2-Fluorophenyl)-5-[2-(2-methylphenyl)phenyl]-1H-1,2,3,4-tetrazole]	510 nM
CN(C)c1ccccc1-c1ccccc1-c1nnnn1-c1ccccc1F [Compound 26, 2-{2-[1-(2-Fluorophenyl)-1H-1,2,3,4-tetrazol-5-yl]phenyl}-N,N-dimethylaniline]	820 nM

SMILES	IC50
FCOc1ccccc1-c1ccccc1-c1nnnn1-c1ccccc1F [Compound 12, 5-{2-[2-(Fluoromethoxy)phenyl]phenyl}-1-(2-fluorophenyl)-1H-1,2,3,4-tetrazole]	300 nM
Fc1ccccc1-n1nnnc1-c1ccccc1-c1ccccc1OCC1CC1 [Compound 6, 5-{2-[2-(Cyclopropylmethoxy)phenyl]phenyl}-1-(2-fluorophenyl)-1H-1,2,3,4-tetrazole]	710 nM
Fc1ccccc1-c1ccccc1-c1nnnn1-c1ccccc1Cl [Compound 48, 1-(2-Chlorophenyl)-5-[2-(2-fluorophenyl)phenyl]-1H-1,2,3,4-tetrazole]	1000 nM
Nc1ccccc1-c1ccccc1-c1nnnn1-c1ccccc1F [Compound 27, 2-{2-[1-(2-Fluorophenyl)-1H-1,2,3,4-tetrazol-5-yl]phenyl}aniline]	900 nM
Fc1ccccc1-n1nnnc1-c1ccccc1-c1ccccc1Cl [Compound 24, 5-[2-(2-Chlorophenyl)phenyl]-1-(2-fluorophenyl)-1H-1,2,3,4-tetrazole]	360 nM
Fc1ccccc1-n1nnnc1-c1ccccc1-c1ccccc1Br [Compound 23, 5-[2-(2-Bromophenyl)phenyl]-1-(2-fluorophenyl)-1H-1,2,3,4-tetrazole]	550 nM
COc1ccccc1-c1ccccc1-c1nnnn1-c1ccccc1O [Compound 53, 2-{5-[2-(2-Methoxyphenyl)phenyl]-1H-1,2,3,4-tetrazol-1-yl}phenol]	1200 nM
COc1ccccc1-c1ccccc1-c1nnnn1-c1ccccc1C#N [Compound 56, 2-{5-[2-(2-Methoxyphenyl)phenyl]-1H-1,2,3,4-tetrazol-1-yl}benzonitrile]	64 nM
N#CCOc1ccccc1-c1ccccc1-c1nnnn1-c1ccccc1F [Compound 7, 2-(2-{2-[1-(2-Fluorophenyl)-1H-1,2,3,4-tetrazol-5-yl]phenyl}phenoxy)acetonitrile]	16 nM
Fc1ccccc1-n1nnnc1-c1ccccc1-c1ccccc1OC(F)(F)F [Compound 15, 1-(2-Fluorophenyl)-5-{2-[2-(trifluoromethoxy)phenyl]phenyl}-1H-1,2,3,4-tetrazole]	1700 nM
COc1ccccc1-c1ccccc1-c1nnnn1-c1ccccc1F [Compound 13, 1-(2-Fluorophenyl)-5-[2-(2-methoxyphenyl)phenyl]-1H-1,2,3,4-tetrazole]	110 nM
COCc1ccccc1-c1ccccc1-c1nnnn1-c1ccccc1F [Compound 29, 1-(2-Fluorophenyl)-5-{2-[2-(methoxymethyl)phenyl]phenyl}-1H-1,2,3,4-tetrazole]	58 nM
COCOc1ccccc1-c1ccccc1-c1nnnn1-c1ccccc1F [Compound 16, 1-(2-Fluorophenyl)-5-{2-[2-(methoxymethoxy)phenyl]phenyl}-1H-1,2,3,4-tetrazole]	190 nM
Fc1ccccc1-n1nnnc1-c1ccccc1-c1ccccc1 [Compound 40, 1-(2-Fluorophenyl)-5-(2-phenylphenyl)-1H-1,2,3,4-tetrazole]	800 nM
N#Cc1ccccc1-n1nnnc1-c1ccccc1-c1ccccc1OC(F)F [Compound 62, 2-(5-{2-[2-(Difluoromethoxy)phenyl]phenyl}-1H-1,2,3,4-tetrazol-1-yl)benzonitrile]	210 nM
CC(C)Oc1ccccc1-c1ccccc1-c1nnnn1-c1ccccc1F [Compound 9, 1-(2-Fluorophenyl)-5-{2-[2-(propan-2-yloxy)phenyl]phenyl}-1H-1,2,3,4-tetrazole]	770 nM
N#Cc1ccccc1-c1ccccc1-c1nnnn1-c1ccccc1F [Compound 31, 2-{2-[1-(2-Fluorophenyl)-1H-1,2,3,4-tetrazol-5-yl]phenyl}benzonitrile]	110 nM
